pIC50: −log10 of the molar value. Where two headings read alike, the source gives them in different places.
Tests used:
[1] = molecular target: wild-type Epidermal Growth Factor Receptor (EGFR) (Homo sapiens (Human), UniProt P00533); assay: WT-EGFR Kinase Assay (TR-FRET, 2 mM ATP); format: biochemical
Description: Inhibitory activity of compounds of the present invention against wild-type Epidermal Growth Factor Receptor (EGFR) was quantified employing the TR-FRET based EGFR assay as described in the following paragraphs.
Recombinant fusion protein of N-terminal Glutathion-S-Transferase (GST) and a fragment of human EGFR (amino acids R669 to A1210), expressed in Sf9 insect cells and purified via affinity chromatography using Glutathion Sepharose as described above, was used as kinase. As substrate for the kinase reaction the biotinylated peptide biotin-Ahx-[…] (C-terminus in amide form) was used which can be purchased e.g. form the company Biosynthan GmbH (Berlin-Buch, Germany).
For the assay 50 nl of a 100 fold concentrated solution of the test compound in DMSO was pipetted into either a black low volume 384 well microtiter plate or a black 1536 well microtiter plate (both Greiner Bio-One, Frickenhausen, Germany), 2 μL of a solution of EGFR in aqueous assay buffer [50 mM Hepes pH 7.0, 10 mM MgCl2, 1 mM dithiothreitol, 0.5 mM EGTA, 0.3 mM activated sodium ortho-vanadate, 0.005% (w/v) bovine serum albumin, 0.005% (v/v) Tween-20] were added and the mixture was incubated for 15 min at 22° C. to allow pre-binding of the test compounds to the enzyme before the start of the kinase reaction. […] The concentration of EGFR was adjusted depending of the activity of the enzyme lot and was chosen appropriate to have the assay in the linear range, typical concentration was 7.6 pg/μL. The reaction was stopped by the addition of 3 μL of a solution of HTRF detection reagents (83.3 nM streptavidine-XL665 [Cisbio Bioassays, Codolet, France] and 1.67 nM PT66-Tb-Cryptate, a terbium-cryptate labelled anti-phospho-tyrosine antibody from Cisbio Bioassays [instead of the PT66-Tb-cryptate PT66-Eu-Chelate from Perkin Elmer can also be used]) in an aqueous EDTA-solution (133.3 mM EDTA, 0.2% (w/v) bovine serum albumin in 50 mM HEPES pH 7.5).
The resulting mixture was incubated 1 h at 22° C. to allow the binding of the biotinylated phosphorylated peptide to the streptavidine-XL665 and the PT66-Tb-Cryptate. Subsequently the amount of phosphorylated substrate was evaluated by measurement of the resonance energy transfer from the PT66-Tb-Cryptate to the streptavidine-XL665. Therefore, the fluorescence emissions at 620 nm and 665 nm after excitation at 337 nm were measured in a HTRF reader, e.g. a Pherastar (BMG Labtechnologies, Offenburg, Germany) or a Viewlux (Perkin-Elmer). The ratio of the emissions at 665 nm and at 622 nm was taken as the measure for the amount of phosphorylated substrate.

CSNK1A1 = CSNK1A1 (Homo sapiens (Human), UniProt P48729); assay: CSNK1A1 High ATP Assay (ADP-Glo, 1 mM ATP); format: biochemical; details: median, read-out: CSNK1A1 high ATP assay IC50 [mol/l] (median)
Method: CSNK1A1-inhibitory activity of compounds of the present invention in presence of 1 mM adenosine-tri-phosphate (ATP) was quantified employing the CSNK1A1-high-ATP-assay as described in the following paragraphs. In essence, the enzyme activity is measured by quantification of the adenosine-di-phosphate (ADP), which is generated as a co-product of the enzyme reaction, via the “ADP-Glo™ Kinase Assay” kit from the company Promega. This detection system works as follows: In a first step the ATP not consumed in the kinase reaction is quantitatively converted to cAMP employing an adenylate cyclase (“ADP-Glo-reagent”), then the adenylate cyclase is stopped and the ADP generated in the kinase reaction converted to ATP which generates in a luciferase-based reaction a glow-luminescence signal (“Kinase Detection Reagent”).
Recombinant fusion protein of N-terminal Glutathion-S-Transferase (GST) and full-length human CSNK1A1, expressed by baculovirus infected insect cells and purified via Glutathion affinity chromatography, was purchased from Life Technologies (product no. PV4174) and used as enzyme. As substrate for the kinase reaction the biotinylated peptide biotin-Ahx-KRRRAL-pS-VASLPGL (C-terminus in amide form) was used which can be purchased e.g. from the company Biosyntan (Berlin-Buch, Germany).
For the assay 50 nl of a 100 fold concentrated solution of the test compound in DMSO was pipetted into a white low volume 384-well microtiter plate (Greiner Bio-One, Frickenhausen, Germany), 2 μL of a solution of CSNK1A1 in aqueous assay buffer [50 mM HEPES pH 7.5, 10% (v/v) glycerol, 10 mM MgCl2, 50 mM NaCl, 1 mM dithiothreitol, 0.01% (w/v) bovine serum albumin, 0.01% (v/v) Triton X-100] were added and the mixture was incubated for 15 min at 22° C. to allow pre-binding of the test compounds to the enzyme before the start of the kinase reaction. […] The concentration of CSNK1A1 was adjusted depending of the activity of the enzyme lot and was chosen appropriate to have the assay in the linear range, a typical concentration is about 0.4 ng/μL. The reaction was stopped by the addition of 2.5 μL of “ADP-Glo-reagent” (1:1.5 fold diluted with water) and the resulting mixture was incubated at 22° C. for 1 h to convert the ATP not consumed in the kinase reaction completely […]. Subsequently 2.5 μL of the “kinase detection reagent” (1.2 fold more concentrated than recommended by the producer) were added, the resulting mixture was incubated at 22° C. for 1 h and then the luminescence measured with a suitable measurement instrument (e.g. Viewlux™ from Perkin-Elmer). The amount of emitted light was taken as a measure for the amount of ADP generated and thereby for the activity of the CSNK1A1.

[2] = read-out: EGFR Wildtype 2 mM ATP IC50 [mol/l] (median)

Sequence of wild-type Epidermal Growth Factor Receptor (EGFR) (P00533 669-1210): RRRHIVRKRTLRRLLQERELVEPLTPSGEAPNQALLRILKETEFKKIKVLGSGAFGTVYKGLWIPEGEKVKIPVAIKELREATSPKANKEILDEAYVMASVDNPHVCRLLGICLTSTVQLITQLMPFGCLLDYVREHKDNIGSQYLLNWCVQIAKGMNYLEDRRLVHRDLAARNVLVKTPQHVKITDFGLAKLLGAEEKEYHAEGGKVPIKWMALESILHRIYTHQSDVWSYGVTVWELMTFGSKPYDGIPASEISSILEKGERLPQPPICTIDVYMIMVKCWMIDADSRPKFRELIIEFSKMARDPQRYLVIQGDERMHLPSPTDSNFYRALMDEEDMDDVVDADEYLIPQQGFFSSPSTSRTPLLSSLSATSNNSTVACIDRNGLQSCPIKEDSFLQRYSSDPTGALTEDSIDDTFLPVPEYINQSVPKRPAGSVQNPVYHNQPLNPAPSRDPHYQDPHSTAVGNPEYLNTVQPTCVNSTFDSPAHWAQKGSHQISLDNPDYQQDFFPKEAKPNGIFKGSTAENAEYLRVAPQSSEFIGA
Sequence of CSNK1A1 (P48729 whole entry): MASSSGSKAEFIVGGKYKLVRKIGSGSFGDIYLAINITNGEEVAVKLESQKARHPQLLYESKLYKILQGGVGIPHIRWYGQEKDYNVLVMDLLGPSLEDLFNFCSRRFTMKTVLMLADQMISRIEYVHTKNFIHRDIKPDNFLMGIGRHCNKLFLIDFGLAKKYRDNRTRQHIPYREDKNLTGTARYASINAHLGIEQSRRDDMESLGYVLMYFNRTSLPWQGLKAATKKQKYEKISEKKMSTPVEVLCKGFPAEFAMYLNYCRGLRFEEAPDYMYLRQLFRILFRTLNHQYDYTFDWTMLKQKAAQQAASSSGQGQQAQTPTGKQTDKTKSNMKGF

O=C(Cc1ccc(F)cc1)Nc1cc(-c2[nH]c3ccnnc3c2-c2ccccn2)ccn1 [Example 21, 2-(4-fluorophenyl)-N-{4-[7-(pyridin-2-yl)-5H-pyrrolo[3,2-c]pyridazin-6-yl]pyridin-2-yl}acetamide]
pIC50 [1, 2]: < 4.70 | pIC50 (CSNK1A1): 7.60

O=C(Cc1ccc(F)cc1)Nc1cc(-c2[nH]c3ccc(Cl)nc3c2-c2ccccn2)ccn1 [Example 23, N-{4-[5-chloro-3-(pyridin-2-yl)-1H-pyrrolo[3,2-b]pyridin-2-yl]pyridin-2-yl}-2-(4-fluorophenyl)acetamide]
pIC50 [1, 2]: < 4.70 | pIC50 (CSNK1A1): 7.39

CN1CCC(N(C)c2ccnc3c(-c4ccccn4)c(-c4ccnc(NC(=O)Cc5ccc(F)cc5)c4)[nH]c23)CC1 [Example 39, 2-(4-fluorophenyl)-N-(4-{7-[methyl(1-methylpiperidin-4-yl)amino]-3-(pyridin-2-yl)-1H-pyrrolo[3,2-b]pyridin-2-yl}pyridin-2-yl)acetamide]
pIC50 [1, 2]: 5.96 | pIC50 (CSNK1A1): 7.48

O=C(Cc1ccc(F)cc1)Nc1cc(-c2[nH]c3cccnc3c2-c2ncccn2)ccn1 [Example 51, 2-(4-fluorophenyl)-N-{4-[3-(pyrimidin-2-yl)-1H-pyrrolo[3,2-b]pyridin-2-yl]pyridin-2-yl}acetamide]
pIC50 [1, 2]: < 4.70 | pIC50 (CSNK1A1): 6.74

Cc1cc2[nH]c(-c3ccnc(NC(=O)C(C)c4ccc(F)cc4)c3)c(-c3ccccn3)c2nc1F (single isomer, unassigned; (-)) [Example 30, (−)-N-{4-[5-fluoro-6-methyl-3-(pyridin-2-yl)-1H-pyrrolo[3,2-b]pyridin-2-yl]pyridin-2-yl}-2-(4-fluorophenyl)propanamide]
pIC50 [1, 2]: < 4.70 | pIC50 (CSNK1A1): 7.63

COCC(C(=O)Nc1cc(-c2[nH]c3cccnc3c2-c2ccccn2)ccn1)c1ccc(F)cc1 (racemic) [Example 43, (2RS)-2-(4-fluorophenyl)-3-methoxy-N-(4-(3-(pyridin-2-yl)-1H-pyrrolo[3,2-b]pyridin-2-yl)pyridin-2-yl)propanamide]
pIC50 ([1]; median): < 4.70 | pIC50 (CSNK1A1): 7.40

O=C(Cc1ccc(F)cc1)Nc1cc(-c2[nH]c3cccnc3c2-c2cccc(F)c2)ccn1 [Example 15, 2-(4-fluorophenyl)-N-{4-[3-(3-fluorophenyl)-1H-pyrrolo[3,2-b]pyridin-2-yl]pyridin-2-yl}acetamide]
pIC50 [1, 2]: < 4.70 | pIC50 (CSNK1A1): 7.06

O=C(Cc1ccc(F)cc1)Nc1cc(-c2[nH]c3cc(F)cnc3c2-c2ccccc2)ccn1 [Example 10, 2-(4-fluorophenyl)-N-[4-(6-fluoro-3-phenyl-1H-pyrrolo[3,2-b]pyridin-2-yl)pyridin-2-yl]acetamide]
pIC50 [1, 2]: < 4.70 | pIC50 (CSNK1A1): 6.52

C=Cc1ccnc2c(-c3ccccn3)c(-c3ccnc(NC(=O)Cc4ccc(F)cc4)c3)[nH]c12 [Example 33, N-{4-[7-ethenyl-3-(pyridin-2-yl)-1H-pyrrolo[3,2-b]pyridin-2-yl]pyridin-2-yl}-2-(4-fluorophenyl)acetamide]
pIC50 [1, 2]: 4.82 | pIC50 (CSNK1A1): 7.54

CN1CCN(c2ccnc3c(-c4ccccn4)c(-c4ccnc(NC(=O)Cc5ccc(F)cc5)c4)[nH]c23)CC1 [Example 38, 2-(4-fluorophenyl)-N-{4-[7-(4-methylpiperazin-1-yl)-3-(pyridin-2-yl)-1H-pyrrolo[3,2-b]pyridin-2-yl]pyridin-2-yl}acetamide]
pIC50 [1, 2]: < 4.70 | pIC50 (CSNK1A1): 7.70

CC(C(=O)Nc1cc(-c2[nH]c3ccc(F)nc3c2-c2ccccn2)ccn1)c1ccc(F)cc1 (single isomer, unassigned; (+)) [Example 3, (+)-2-(4-fluorophenyl)-N-{4-[5-fluoro-3-(pyridin-2-yl)-1H-pyrrolo[3,2-b]pyridin-2-yl]pyridin-2-yl}propanamide]
pIC50 [1, 2]: < 4.70 | pIC50 (CSNK1A1): 7.92

CC(C(=O)Nc1cc(-c2[nH]c3ccc(F)nc3c2-c2ccccn2)ccn1)c1ccc(F)cc1 (single isomer, unassigned; (-)) [Example 2, (−)-2-(4-fluorophenyl)-N-{4-[5-fluoro-3-(pyridin-2-yl)-1H-pyrrolo[3,2-b]pyridin-2-yl]pyridin-2-yl}propanamide]
pIC50 ([1]; median): < 4.70 | pIC50 (CSNK1A1): 6.05

O=C(Cc1ccc(F)cc1)Nc1cc(-c2[nH]c3cc(F)cnc3c2-c2ccccn2)ccn1 [Example 9, 2-(4-fluorophenyl)-N-{4-[6-fluoro-3-(pyridin-2-yl)-1H-pyrrolo[3,2-b]pyridin-2-yl]pyridin-2-yl}acetamide]
pIC50 [1, 2]: < 4.70 | pIC50 (CSNK1A1): 7.47

COCCC(C(=O)Nc1cc(-c2[nH]c3cccnc3c2-c2ccccn2)ccn1)c1ccc(F)cc1 (racemic) [Example 44]
pIC50 ([1]; median): < 4.70 | pIC50 (CSNK1A1): 7.23

O=C(Cc1ccc(F)cc1)Nc1cc(-c2[nH]c3cccnc3c2-c2ncccn2)ccn1 [Example 16, 2-(4-fluorophenyl)-N-{4-[3-(pyrimidin-2-yl)-1H-pyrrolo[3,2-b]pyridin-2-yl]pyridin-2-yl}acetamide]
pIC50 ([1]; median): 4.76 | pIC50 [1, 2]: < 4.70 | pIC50 (CSNK1A1): 7.01

Cc1cc2[nH]c(-c3ccnc(NC(=O)Cc4ccc(F)cc4)c3)c(-c3ccccn3)c2nc1F [Example 27, N-{4-[5-fluoro-6-methyl-3-(pyridin-2-yl)-1H-pyrrolo[3,2-b]pyridin-2-yl]pyridin-2-yl}-2-(4-fluorophenyl)acetamide]
pIC50 [1, 2]: < 4.70 | pIC50 (CSNK1A1): 7.95

O=C(Cc1ccc(F)cc1)Nc1cc(-c2[nH]c3c(C4CC4)ccnc3c2-c2ccccn2)ccn1 [Example 35, N-{4-[7-cyclopropyl-3-(pyridin-2-yl)-1H-pyrrolo[3,2-b]pyridin-2-yl]pyridin-2-yl}-2-(4-fluorophenyl)acetamide]
pIC50 [1, 2]: < 4.70 | pIC50 (CSNK1A1): 8.19

Cc1cc2[nH]c(-c3ccnc(NC(=O)C(C)c4ccc(F)cc4)c3)c(-c3ccccn3)c2nc1F (single isomer, unassigned; (+)) [Example 29, (+)-N-{4-[5-fluoro-6-methyl-3-(pyridin-2-yl)-1H-pyrrolo[3,2-b]pyridin-2-yl]pyridin-2-yl}-2-(4-fluorophenyl)propanamide]
pIC50 ([1]; median): < 4.70 | pIC50 (CSNK1A1): 5.94

CCc1ccnc2c(-c3ccccn3)c(-c3ccnc(NC(=O)Cc4ccc(F)cc4)c3)[nH]c12 [Example 34, N-{4-[7-ethyl-3-(pyridin-2-yl)-1H-pyrrolo[3,2-b]pyridin-2-yl]pyridin-2-yl}-2-(4-fluorophenyl)acetamide]
pIC50 [1, 2]: < 4.70 | pIC50 (CSNK1A1): 7.87

— patent US20230339939A1 (Bayer Aktiengesellschaft, priority 2020, published 2023)
